From patent publication US20240240256A1, “MOLECULAR ANALYSIS OF EXTRACELLULAR VESICLES (EVs) FOR THE PREDICTION AND MONITORING OF DRUG RESISTANCE IN CANCER” (The General Hospital Corporation, priority 2023, published 2024)

How the values were obtained:
HCC1954 REPX = experiment: MTT growth inhibition assay, paclitaxel-resistant subtype; type: cell-based, human
Description: To develop the paclitaxel resistance subtype, cells were continually exposed to stepwise increases in the concentration of paclitaxel over 16 to 18 weeks. Briefly, HCC1954 cells were seeded at a density of ˜5×10^5/mL in a T75 cell culture flask with 10 mL complete growth medium. After 4-6 hours of incubation, relatively low concentrations of paclitaxel (ranging from 1 to 150 nM) were added into the medium. Cells were left in paclitaxel for three days or until a stable cell re-population formed. Regular medium replenishment was performed throughout this period. The paclitaxel concentration was then increased by 0.5 to 2-fold. This stepwise dose escalation continued for 16 to 18 weeks until the paclitaxel concentration reached at least ten times the starting concentration. […]
Drug sensitivity was determined by the 3-(4, 5-dimethylthiazol-2-yl)-2, 5-diphenyl tetrazolium bromide (MTT) colorimetric assay. First, cells were counted with a hemocytometer, seeded in a 96-well plate, and cultured for 24 h. […] The optical density (OD; absorbance at 540 nm) was measured using a plate reader (Tecan). […]
To generate a resistance cell model in vitro (HCC1954 REPX), the HCC1954 cell line was treated with increasing concentrations of paclitaxel, and cell viability was re-evaluated after 18 weeks of treatment.

BT474 = experiment: MTT growth inhibition assay, paclitaxel drug sensitivity; type: cell-based; settings: Homo sapiens, BT-474, BT474 breast cancer cells, 72 h treatment, read-out: paclitaxel inhibitor concentration 50 (IC50)
Description: (§1) The human breast cancer cell lines, including HCC1954, BT474, MCF7, MDA-MB-231, HCC1937 cells, and normal breast cell, Hs371T, were purchased from American Type Culture Collection (ATCC) and cultured at 37° C. in 5% CO2. HCC1954, BT474, and HCC1937 cells were grown in RPMI-1640 (Hyclone), and MCF7, MDA-MB-231, and Hs371T cells were cultured in DMEM (Cyclone). All complete media contained 10% fetal bovine serum (FBS, ThermoFisher Scientific), 100 U/mL penicillin, and 100 μg/mL streptomycin (Millipore Sigma).
(§2) Drug sensitivity was determined by the 3-(4, 5-dimethylthiazol-2-yl)-2, 5-diphenyl tetrazolium bromide (MTT) colorimetric assay. First, cells were counted with a hemocytometer, seeded in a 96-well plate, and cultured for 24 h. After that, cells were treated with paclitaxel for 72 h: paclitaxel (1.00E-06-10 µM). Subsequently, MTT dye (Sigma-Aldrich; Merck KGaA) at a final concentration of 0.5 mg/ml was added for 3 hours. This was followed by replacing the medium and dissolving the formazan crystals with DMSO. The optical density (OD; absorbance at 540 nm) was measured using a plate reader (Tecan). Data (mean±SD of at least three independent experiments performed in triplets) are presented as the relative proliferation as a function of time after seeding.
(§3) MTT assay was performed for each cell line to determine the paclitaxel inhibitor concentration 50 (IC50) in the six breast cancer cell lines included.

MD-MB-231 = experiment: as above; type: cell-based; settings: Homo sapiens, MD-MB-231 breast cancer cells, 72 h treatment, read-out: paclitaxel inhibitor concentration 50 (IC50)
Description: as §1, §2, §3

HCC1937 = experiment: as above; type: cell-based; settings: Homo sapiens, HCC1937 breast cancer cells, 72 h treatment, read-out: paclitaxel inhibitor concentration 50 (IC50)
Description: as §1, §2, §3

HCC1954 = experiment: as above; type: cell-based; settings: Homo sapiens, HCC1954 breast cancer cells, 72 h treatment, read-out: paclitaxel inhibitor concentration 50 (IC50)
Description: as §1, §2, §3

IC50 (HCC1954 REPX; Homo sapiens, HCC1954 REPX paclitaxel-resistant subtype, after 18 weeks of paclitaxel treatment, MTT): 1.8 µM
IC50 (BT474): 0.1 µM
IC50 (HCC1937): 9.9 µM
IC50 (HCC1954): 0.014 µM
SMILES: CC(=O)O[C@H]1C(=O)[C@@]2(C)[C@H]([C@H](OC(=O)c3ccccc3)[C@]3(O)C[C@H](OC(=O)[C@H](O)[C@@H](NC(=O)c4ccccc4)c4ccccc4)C(C)=C1C3(C)C)[C@]1(OC(C)=O)CO[C@@H]1C[C@@H]2O [paclitaxel, Paclitaxel]
increase in paclitaxel-resistance (HCC1954 REPX; IC50 in HCC1954 REPX compared to parental HCC1954): 128.57 fold
IC50 (MD-MB-231): 0.6 µM
